Assay results from ChEMBL document CHEMBL4428109, “Structure-activity relationship studies of non-carboxylic acid peroxisome proliferator-activated receptor α/δ (PPARα/δ) dual agonists” (Bioorg Med Chem, 2016).
The source made the active and inactive calls. No cut-off for these calls is given here.

Key:
[1] = target: T1, Peroxisome proliferator-activated receptor alpha (Homo sapiens) (UniProt Q07869); assay: Agonist activity at N-terminal Gal4 fused human PPARalpha LBD transfected in HEK293 cells at < 10 uM after 24 hrs by luciferase reporter gene assay; assay type: cell-based
T1 sequence (whole entry): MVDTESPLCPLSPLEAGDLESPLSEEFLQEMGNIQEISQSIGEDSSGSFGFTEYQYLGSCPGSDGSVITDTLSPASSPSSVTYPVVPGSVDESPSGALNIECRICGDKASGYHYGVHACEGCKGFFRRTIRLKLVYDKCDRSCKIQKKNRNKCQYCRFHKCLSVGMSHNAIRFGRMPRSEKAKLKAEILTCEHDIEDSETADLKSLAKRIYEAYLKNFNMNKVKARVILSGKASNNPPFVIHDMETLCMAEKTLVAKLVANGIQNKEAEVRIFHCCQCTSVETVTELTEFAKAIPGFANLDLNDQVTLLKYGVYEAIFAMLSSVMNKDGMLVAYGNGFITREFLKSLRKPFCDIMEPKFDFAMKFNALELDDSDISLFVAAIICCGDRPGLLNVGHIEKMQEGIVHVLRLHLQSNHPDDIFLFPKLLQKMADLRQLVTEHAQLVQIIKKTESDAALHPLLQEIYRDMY

[2] = target: T2, Peroxisome proliferator-activated receptor gamma (Homo sapiens) (UniProt P37231); assay: Agonist activity at N-terminal Gal4 fused human PPARgamma LBD transfected in HEK293 cells at < 10 uM after 24 hrs by luciferase reporter gene assay; assay type: cell-based
T2 sequence (whole entry): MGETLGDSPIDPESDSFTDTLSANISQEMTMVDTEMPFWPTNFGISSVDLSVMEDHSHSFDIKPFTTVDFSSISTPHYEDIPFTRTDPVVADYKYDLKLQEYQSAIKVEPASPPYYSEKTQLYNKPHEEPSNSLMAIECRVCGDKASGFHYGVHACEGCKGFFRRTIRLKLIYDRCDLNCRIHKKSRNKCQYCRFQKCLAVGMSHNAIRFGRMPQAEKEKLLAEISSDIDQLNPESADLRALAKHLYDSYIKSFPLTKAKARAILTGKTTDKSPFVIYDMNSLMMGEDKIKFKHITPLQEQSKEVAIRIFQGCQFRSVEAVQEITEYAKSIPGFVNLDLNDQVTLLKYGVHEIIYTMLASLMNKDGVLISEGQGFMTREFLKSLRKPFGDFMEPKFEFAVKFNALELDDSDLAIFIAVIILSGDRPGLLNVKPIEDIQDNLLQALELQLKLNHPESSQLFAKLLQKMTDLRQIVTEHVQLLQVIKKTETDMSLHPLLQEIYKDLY

[3] = target: T3, Peroxisome proliferator-activated receptor delta (Homo sapiens) (UniProt Q03181); assay: Agonist activity at N-terminal Gal4 fused human PPARdelta LBD transfected in HEK293 cells at < 10 uM after 24 hrs by luciferase reporter gene assay; assay type: cell-based
T3 sequence (whole entry): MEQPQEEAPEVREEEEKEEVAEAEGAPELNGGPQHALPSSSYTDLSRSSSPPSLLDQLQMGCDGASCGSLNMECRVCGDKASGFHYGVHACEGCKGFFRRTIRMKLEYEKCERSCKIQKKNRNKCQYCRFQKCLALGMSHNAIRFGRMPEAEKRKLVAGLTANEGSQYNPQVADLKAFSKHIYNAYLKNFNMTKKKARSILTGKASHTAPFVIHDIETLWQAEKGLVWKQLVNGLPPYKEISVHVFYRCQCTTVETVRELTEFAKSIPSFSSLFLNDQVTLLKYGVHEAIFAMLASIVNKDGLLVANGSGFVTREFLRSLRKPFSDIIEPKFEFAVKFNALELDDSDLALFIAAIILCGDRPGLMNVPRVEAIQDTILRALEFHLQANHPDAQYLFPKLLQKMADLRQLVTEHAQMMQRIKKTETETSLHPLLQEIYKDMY

[4] = target: T4, Retinoic acid receptor RXR-alpha (Homo sapiens) (UniProt P19793); assay: Agonist activity at RXRalpha (unknown origin) at < 20 uM
T4 sequence (whole entry): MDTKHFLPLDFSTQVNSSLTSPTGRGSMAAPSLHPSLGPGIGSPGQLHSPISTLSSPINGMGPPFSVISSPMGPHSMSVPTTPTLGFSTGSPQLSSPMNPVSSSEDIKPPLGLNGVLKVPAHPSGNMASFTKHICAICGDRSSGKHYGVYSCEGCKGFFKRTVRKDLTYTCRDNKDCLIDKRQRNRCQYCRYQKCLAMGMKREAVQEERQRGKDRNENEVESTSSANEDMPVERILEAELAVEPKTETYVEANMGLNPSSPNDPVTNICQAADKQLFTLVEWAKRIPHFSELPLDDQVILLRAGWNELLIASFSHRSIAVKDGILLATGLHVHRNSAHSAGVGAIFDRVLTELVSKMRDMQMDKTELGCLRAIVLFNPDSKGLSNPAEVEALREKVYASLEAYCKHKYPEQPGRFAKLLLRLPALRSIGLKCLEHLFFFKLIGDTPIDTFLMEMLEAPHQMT

[5] = target: T5, Oxysterols receptor LXR-alpha (Homo sapiens) (UniProt Q13133); assay: Agonist activity at LXRalpha (unknown origin) at < 20 uM
T5 sequence (whole entry): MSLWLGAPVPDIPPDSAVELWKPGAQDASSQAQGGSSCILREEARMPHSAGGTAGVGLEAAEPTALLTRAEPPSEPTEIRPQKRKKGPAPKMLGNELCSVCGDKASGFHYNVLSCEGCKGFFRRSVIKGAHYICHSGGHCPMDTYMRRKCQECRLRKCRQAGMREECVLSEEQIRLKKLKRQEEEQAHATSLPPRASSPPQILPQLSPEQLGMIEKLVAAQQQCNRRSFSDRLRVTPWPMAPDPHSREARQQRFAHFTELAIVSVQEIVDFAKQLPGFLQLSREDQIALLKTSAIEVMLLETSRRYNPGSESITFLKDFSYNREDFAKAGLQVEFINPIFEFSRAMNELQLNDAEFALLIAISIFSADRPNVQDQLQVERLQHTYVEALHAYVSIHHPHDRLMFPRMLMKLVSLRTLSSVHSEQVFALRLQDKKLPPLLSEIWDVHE

[6] = target: T6, Retinoic acid receptor RXR-beta (Homo sapiens) (UniProt P28702); assay: Agonist activity at RXRbeta (unknown origin) at < 20 uM
T6 sequence (whole entry): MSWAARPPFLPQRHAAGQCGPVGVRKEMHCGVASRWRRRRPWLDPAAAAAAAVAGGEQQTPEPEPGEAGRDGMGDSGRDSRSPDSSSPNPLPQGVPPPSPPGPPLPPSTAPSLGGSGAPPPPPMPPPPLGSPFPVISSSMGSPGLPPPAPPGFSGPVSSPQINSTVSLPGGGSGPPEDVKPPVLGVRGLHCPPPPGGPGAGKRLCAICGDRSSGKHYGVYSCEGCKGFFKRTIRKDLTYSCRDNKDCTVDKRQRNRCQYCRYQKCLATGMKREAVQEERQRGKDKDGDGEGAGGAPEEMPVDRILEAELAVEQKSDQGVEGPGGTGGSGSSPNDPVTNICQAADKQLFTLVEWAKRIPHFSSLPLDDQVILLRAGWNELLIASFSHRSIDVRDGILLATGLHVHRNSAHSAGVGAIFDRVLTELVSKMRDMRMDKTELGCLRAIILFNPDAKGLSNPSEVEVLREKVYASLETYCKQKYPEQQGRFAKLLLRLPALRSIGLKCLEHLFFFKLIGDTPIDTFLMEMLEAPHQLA

[7] = target: T7, Bile acid receptor (Homo sapiens) (UniProt Q96RI1); assay: Agonist activity at FXR (unknown origin) at < 20 uM
T7 sequence (whole entry): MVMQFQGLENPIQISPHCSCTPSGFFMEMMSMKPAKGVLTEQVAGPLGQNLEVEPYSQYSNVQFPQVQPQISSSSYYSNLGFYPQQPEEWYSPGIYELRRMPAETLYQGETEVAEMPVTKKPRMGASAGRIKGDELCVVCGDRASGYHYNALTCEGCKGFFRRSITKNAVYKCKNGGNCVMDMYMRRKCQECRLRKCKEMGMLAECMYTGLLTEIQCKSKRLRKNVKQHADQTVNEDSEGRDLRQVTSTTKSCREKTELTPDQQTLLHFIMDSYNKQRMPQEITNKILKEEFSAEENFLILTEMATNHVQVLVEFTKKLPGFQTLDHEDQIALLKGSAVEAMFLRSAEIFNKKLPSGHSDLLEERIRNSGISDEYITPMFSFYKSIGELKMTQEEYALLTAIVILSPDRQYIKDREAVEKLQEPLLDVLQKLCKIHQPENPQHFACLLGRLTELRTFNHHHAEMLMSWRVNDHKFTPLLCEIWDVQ

[8] = target: T8, Oxysterols receptor LXR-beta (Homo sapiens) (UniProt P55055); assay: Agonist activity at LXRbeta (unknown origin) at < 20 uM
T8 sequence (whole entry): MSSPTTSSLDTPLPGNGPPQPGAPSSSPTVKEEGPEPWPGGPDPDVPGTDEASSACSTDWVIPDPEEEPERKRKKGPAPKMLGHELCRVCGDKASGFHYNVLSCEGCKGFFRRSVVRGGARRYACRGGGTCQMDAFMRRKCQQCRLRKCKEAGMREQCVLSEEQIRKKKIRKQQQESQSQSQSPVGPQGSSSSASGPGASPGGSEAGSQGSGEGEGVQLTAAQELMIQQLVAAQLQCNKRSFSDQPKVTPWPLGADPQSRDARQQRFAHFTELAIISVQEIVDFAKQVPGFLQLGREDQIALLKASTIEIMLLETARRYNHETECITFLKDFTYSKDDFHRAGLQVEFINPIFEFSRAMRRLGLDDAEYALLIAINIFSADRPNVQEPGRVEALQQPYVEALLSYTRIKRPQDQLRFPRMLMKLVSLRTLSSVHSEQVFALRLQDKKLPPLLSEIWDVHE

[9] = target: T9, Retinoic acid receptor RXR-gamma (Homo sapiens) (UniProt P48443); assay: Agonist activity at RXRgamma (unknown origin) at < 20 uM
T9 sequence (whole entry): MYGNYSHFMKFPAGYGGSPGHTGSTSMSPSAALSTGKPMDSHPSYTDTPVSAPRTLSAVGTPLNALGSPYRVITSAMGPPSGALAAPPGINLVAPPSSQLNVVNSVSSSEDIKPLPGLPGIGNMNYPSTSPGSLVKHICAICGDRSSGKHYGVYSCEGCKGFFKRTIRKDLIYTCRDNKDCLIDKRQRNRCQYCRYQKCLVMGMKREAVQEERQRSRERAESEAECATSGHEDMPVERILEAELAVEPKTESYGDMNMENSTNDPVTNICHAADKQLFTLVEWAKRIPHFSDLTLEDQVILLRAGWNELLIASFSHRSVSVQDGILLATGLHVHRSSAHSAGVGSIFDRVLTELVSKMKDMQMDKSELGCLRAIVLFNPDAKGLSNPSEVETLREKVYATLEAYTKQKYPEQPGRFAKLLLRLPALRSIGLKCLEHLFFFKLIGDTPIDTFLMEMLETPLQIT

[10] = target: T10, Peroxisome proliferator-activated receptor delta (Homo sapiens, UniProt Q03181); assay: Agonist activity at N-terminal Gal4 fused human PPARdelta LBD transfected in HEK293 cells after 24 hrs by luciferase reporter gene assay; assay type: cell-based
T10 sequence (Q03181 whole entry): T3 sequence (whole entry)

[11] = target: T11, Peroxisome proliferator-activated receptor alpha (Homo sapiens, UniProt Q07869); assay: Agonist activity at N-terminal Gal4 fused human PPARalpha LBD transfected in HEK293 cells after 24 hrs by luciferase reporter gene assay; assay type: cell-based
T11 sequence (Q07869 whole entry): T1 sequence (whole entry)

[12] = target: T3, Peroxisome proliferator-activated receptor delta (Homo sapiens); assay: Agonist activity at N-terminal Gal4 fused human PPARdelta LBD transfected in HEK293 cells after 24 hrs by luciferase reporter gene assay relative to GW501516; assay type: cell-based
[13] = target: T1, Peroxisome proliferator-activated receptor alpha (Homo sapiens); assay: Agonist activity at N-terminal Gal4 fused human PPARalpha LBD transfected in HEK293 cells after 24 hrs by luciferase reporter gene assay relative to GW7647; assay type: cell-based

Structure (SMILES) | Activity [1] | Activity [2] | Activity [3] | EC50 [10] [nM] | EC50 [11] [nM] | Emax [12] [%] | Emax [13] [%] | other results
CC(=O)N(C)Cc1nc(-c2ccc(Oc3ccc(OCc4ccccc4)cc3)cc2)no1 | inactive | inactive | inactive | – | – | – | – | –
CC(=O)NCc1nc(-c2ccc(Oc3ccc(OCc4ccccc4)cc3)cc2)no1 | inactive | inactive | inactive | – | – | – | – | –
CC(=O)NC(C)c1nc(-c2ccc(Oc3ccc(O)cc3)cc2)no1 (stereo not given) | – | – | – | – | – | – | – | Activity [4]: inactive; Activity [5]: inactive; Activity [6]: inactive; Activity [7]: inactive; Activity [8]: inactive; Activity [9]: inactive
CC(=O)NC(C)(C)c1nc(-c2ccc(Oc3ccc(OCc4ccccc4)cc3)cc2)no1 | inactive | inactive | inactive | – | – | – | – | –
COC(=O)NC(C)c1nc(-c2ccc(Oc3ccc(O)cc3)cc2)no1 (stereo not given) | inactive | inactive | inactive | – | – | – | – | –
CC(NC(=O)C(F)(F)F)c1nc(-c2ccc(Oc3ccc(O)cc3)cc2)no1 (stereo not given) | inactive | inactive | inactive | – | – | – | – | –
CCC(NC(C)=O)c1nc(-c2ccc(Oc3ccc(OCc4ccccc4)cc3)cc2)no1 (stereo not given) | – | inactive | – | 110 | 130 | 5 to 15 | 10 to 40 | –

Continued, in another order:

Activity [1] | Activity [2] | Activity [3] | EC50 [10] [nM] | EC50 [11] [nM] | Emax [12] [%] | Emax [13] [%] | Structure (SMILES) | other results
inactive | – | – | – | – | – | – | CC(NC(=O)OC(C)(C)C)c1nc(-c2ccc(Oc3ccc(OCc4ccccc4)cc3)cc2)no1 (stereo not given) | –
– | inactive | – | 150 | 100 | 5 to 15 | 10 to 40 | CC(NC(=O)C(F)(F)F)c1nc(-c2ccc(Oc3ccc(OCc4ccccc4)cc3)cc2)no1 (stereo not given) | –
inactive | – | inactive | – | – | – | 10 to 40 | CC(=O)N[C@H](C)c1nc(-c2ccc(Oc3ccc(OCc4ccccc4)cc3)cc2)no1 | –
– | inactive | – | 290 | 100 | 5 to 15 | 10 to 40 | COC(=O)NC(C)c1nc(-c2ccc(Oc3ccc(OCc4ccccc4)cc3)cc2)no1 (stereo not given) | –
inactive | – | – | – | – | – | – | CC(N)c1nc(-c2ccc(Oc3ccc(OCc4ccccc4)cc3)cc2)no1 (stereo not given) | –
– | – | – | 23 | 17 | 5 to 15 | 10 to 40 | CC(=O)N[C@@H](C)c1nc(-c2ccc(Oc3ccc(OCc4ccccc4)cc3)cc2)no1 | –
